Laboratory results taken from the supplement of paper PMC11208160.

Test: recombinant barcode read abundance after kanamycin selection (control-corrected) (log10(CPM+1)); higher = more efficient recombination; sequences stand for … in AGTGCAGAGAAAATCGGCCAGTTTTCTCTGCCTGCAGTCCGCATGCCGT…ATTTATGCAGCGGACTGCCTTTCTCCCAAAGTGATAAACCGGACAGTATCATGGACCGGTTTTCCCGGTAATCCGTATTTGCAAGGTTGGTTTCACT; site = the 11-nt target
Method: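 Same pooled E. coli target screen (IS621 bridge recombinase, kanamycin selection, control-corrected CPM, mean of 2 biological replicates). Here the two core-binding nucleotides of the LTG and RTG of the bridge RNA target-binding loop are mutated. Target and donor CT cores are held constant, and the other 9 guide positions match the target. The target is read from the library oligo sequence. Molecule = full bridge RNA written as DNA: nt 1-80 from the library oligo, rest WT scaffold.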

| Sequence | recombinant barcode read abundance (log10) |
| --- | --- |
| ACGGGACCATGGGTTCTAACCTGTTGCAGAG [ACGGGACCTCT_LTGcore_CA_RTGcore_CT] (site ACGGGACCTCT) (LTG core: CA, RTG core: CT) | 2.09 |
| GGGCGGACCTGGGTTCTAACCTGTTGCGGAG [GGGCGGACTCC_LTGcore_CC_RTGcore_CT] (site GGGCGGACTCC) (LTG core: CC, RTG core: CT) | 1.4 |
| GGCTCCCAGTGGGTTCTAACCTGTTGCGGAG [GGCTCCCCTCC_LTGcore_AG_RTGcore_CT] (site GGCTCCCCTCC) (LTG core: AG, RTG core: CT) | 0.156 |
| CGCGCCCTATGGGTTCTAACCTGTTGCGGAG [CGCGCCCCTCC_LTGcore_TA_RTGcore_CT] (site CGCGCCCCTCC) (LTG core: TA, RTG core: CT) | 0.334 |
| AGGCGGGTATGGGTTCTAACCTGTTGCGGTA [AGGCGGGCTCC_LTGcore_TA_RTGcore_TA] (site AGGCGGGCTCC) (LTG core: TA, RTG core: TA) | 0.364 |
| GGTGCCCACTGGGTTCTAACCTGTTGCCGGT [GGTGCCCCTCG_LTGcore_AC_RTGcore_AC] (site GGTGCCCCTCG) (LTG core: AC, RTG core: AC) | 0.066 |
| CGAGCCCCTTGGGTTCTAACCTGTTGCTGGT [CGAGCCCCTCA_LTGcore_CT_RTGcore_AC] (site CGAGCCCCTCA) (LTG core: CT, RTG core: AC) | 1.21 |
| GCGGGACTATGGGTTCTAACCTGTTGCCTTA [GCGGGACCTAG_LTGcore_TA_RTGcore_TA] (site GCGGGACCTAG) (LTG core: TA, RTG core: TA) | 0.214 |
| GAGTCCACCTGGGTTCTAACCTGTTGCGTAG [GAGTCCACTAC_LTGcore_CC_RTGcore_CT] (site GAGTCCACTAC) (LTG core: CC, RTG core: CT) | 0.172 |
| CGGTCCCTTTGGGTTCTAACCTGTTGCCAAG [CGGTCCCCTTG_LTGcore_TT_RTGcore_CT] (site CGGTCCCCTTG) (LTG core: TT, RTG core: CT) | 0.0132 |
| AGTCTTATTTGGGTTCTAACCTGTTGCCAAA [AGTCTTACTTG_LTGcore_TT_RTGcore_TT] (site AGTCTTACTTG) (LTG core: TT, RTG core: TT) | 0.0474 |
| GGTGCCCCTTGGGTTCTAACCTGTTGCCGCT [GGTGCCCCTCG_LTGcore_CT_RTGcore_AG] (site GGTGCCCCTCG) (LTG core: CT, RTG core: AG) | 0.0402 |
| AGGCGGGCTTGGGTTCTAACCTGTTGCGGGA [AGGCGGGCTCC_LTGcore_CT_RTGcore_TC] (site AGGCGGGCTCC) (LTG core: CT, RTG core: TC) | 0.253 |
| AAACATGCATGGGTTCTAACCTGTTGCCTAG [AAACATGCTAG_LTGcore_CA_RTGcore_CT] (site AAACATGCTAG) (LTG core: CA, RTG core: CT) | 0.141 |
| AAACACAAATGGGTTCTAACCTGTTGCCTTT [AAACACACTAG_LTGcore_AA_RTGcore_AA] (site AAACACACTAG) (LTG core: AA, RTG core: AA) | 0.0994 |
| ATGCTTTGCTGGGTTCTAACCTGTTGCCTAG [ATGCTTTCTAG_LTGcore_GC_RTGcore_CT] (site ATGCTTTCTAG) (LTG core: GC, RTG core: CT) | 0.0505 |
| AAACAGTATTGGGTTCTAACCTGTTGCCTAT [AAACAGTCTAG_LTGcore_AT_RTGcore_AT] (site AAACAGTCTAG) (LTG core: AT, RTG core: AT) | 0.204 |
| CGGTCCCCTTGGGTTCTAACCTGTTGCCATG [CGGTCCCCTTG_LTGcore_CT_RTGcore_CA] (site CGGTCCCCTTG) (LTG core: CT, RTG core: CA) | 1.6 |
| GAGTCCAGATGGGTTCTAACCTGTTGCGTAG [GAGTCCACTAC_LTGcore_GA_RTGcore_CT] (site GAGTCCACTAC) (LTG core: GA, RTG core: CT) | 0.294 |
| TTATAAAACTGGGTTCTAACCTGTTGCCTGT [TTATAAACTAG_LTGcore_AC_RTGcore_AC] (site TTATAAACTAG) (LTG core: AC, RTG core: AC) | 0.0452 |
| ATGCTTTCTTGGGTTCTAACCTGTTGCCTCT [ATGCTTTCTAG_LTGcore_CT_RTGcore_AG] (site ATGCTTTCTAG) (LTG core: CT, RTG core: AG) | 0.0217 |
| GGACACCAATGGGTTCTAACCTGTTGCCTAG [GGACACCCTAG_LTGcore_AA_RTGcore_CT] (site GGACACCCTAG) (LTG core: AA, RTG core: CT) | 0.294 |

| Sequence | recombinant barcode read abundance (log10) |
| --- | --- |
| AAACAGTCTTGGGTTCTAACCTGTTGCCTTA [AAACAGTCTAG_LTGcore_CT_RTGcore_TA] (site AAACAGTCTAG) (LTG core: CT, RTG core: TA) | 1.78 |
| CGGTCCCACTGGGTTCTAACCTGTTGCCAGT [CGGTCCCCTTG_LTGcore_AC_RTGcore_AC] (site CGGTCCCCTTG) (LTG core: AC, RTG core: AC) | 0.19 |
| GGCTCCCGATGGGTTCTAACCTGTTGCGGAG [GGCTCCCCTCC_LTGcore_GA_RTGcore_CT] (site GGCTCCCCTCC) (LTG core: GA, RTG core: CT) | 0.104 |
| ATGTCCCCTTGGGTTCTAACCTGTTGCTCCG [ATGTCCCCTGA_LTGcore_CT_RTGcore_CG] (site ATGTCCCCTGA) (LTG core: CT, RTG core: CG) | 0.249 |
| AGGAGGTGGTGGGTTCTAACCTGTTGCCTAG [AGGAGGTCTAG_LTGcore_GG_RTGcore_CT] (site AGGAGGTCTAG) (LTG core: GG, RTG core: CT) | 0.165 |
| ATGTCCCTCTGGGTTCTAACCTGTTGCTCAG [ATGTCCCCTGA_LTGcore_TC_RTGcore_CT] (site ATGTCCCCTGA) (LTG core: TC, RTG core: CT) | 0.209 |
| GGGCGGACTTGGGTTCTAACCTGTTGCGGTC [GGGCGGACTCC_LTGcore_CT_RTGcore_GA] (site GGGCGGACTCC) (LTG core: CT, RTG core: GA) | 0.104 |
| TCTACCCCTTGGGTTCTAACCTGTTGCTGTA [TCTACCCCTCA_LTGcore_CT_RTGcore_TA] (site TCTACCCCTCA) (LTG core: CT, RTG core: TA) | 0.124 |
| TAAGAATCTTGGGTTCTAACCTGTTGCCTCC [TAAGAATCTAG_LTGcore_CT_RTGcore_GG] (site TAAGAATCTAG) (LTG core: CT, RTG core: GG) | 0.142 |
| ACGGGACGTTGGGTTCTAACCTGTTGCAGAC [ACGGGACCTCT_LTGcore_GT_RTGcore_GT] (site ACGGGACCTCT) (LTG core: GT, RTG core: GT) | 0.0225 |
| GGACACCCGTGGGTTCTAACCTGTTGCCTCG [GGACACCCTAG_LTGcore_CG_RTGcore_CG] (site GGACACCCTAG) (LTG core: CG, RTG core: CG) | 0.314 |
| TCTACCCCTTGGGTTCTAACCTGTTGCTGAG [TCTACCCCTCA_LTGcore_CT_RTGcore_CT] (site TCTACCCCTCA) (LTG core: CT, RTG core: CT) | 0.783 |
| TAAGAATACTGGGTTCTAACCTGTTGCCTGT [TAAGAATCTAG_LTGcore_AC_RTGcore_AC] (site TAAGAATCTAG) (LTG core: AC, RTG core: AC) | 0.0208 |
| GAGGCCTCTTGGGTTCTAACCTGTTGCCACC [GAGGCCTCTTG_LTGcore_CT_RTGcore_GG] (site GAGGCCTCTTG) (LTG core: CT, RTG core: GG) | 0.236 |
| AGGCGGGCTTGGGTTCTAACCTGTTGCGGTC [AGGCGGGCTCC_LTGcore_CT_RTGcore_GA] (site AGGCGGGCTCC) (LTG core: CT, RTG core: GA) | 0.246 |
| AGGCGGGGTTGGGTTCTAACCTGTTGCGGAG [AGGCGGGCTCC_LTGcore_GT_RTGcore_CT] (site AGGCGGGCTCC) (LTG core: GT, RTG core: CT) | 0.871 |
| TGATACCCTTGGGTTCTAACCTGTTGCGTAG [TGATACCCTAC_LTGcore_CT_RTGcore_CT] (site TGATACCCTAC) (LTG core: CT, RTG core: CT) | 2.73 |
| TTATAAACTTGGGTTCTAACCTGTTGCCTTA [TTATAAACTAG_LTGcore_CT_RTGcore_TA] (site TTATAAACTAG) (LTG core: CT, RTG core: TA) | 0.076 |
| ATGTCCCGATGGGTTCTAACCTGTTGCTCAG [ATGTCCCCTGA_LTGcore_GA_RTGcore_CT] (site ATGTCCCCTGA) (LTG core: GA, RTG core: CT) | 0.647 |
| GAGCCCAGGTGGGTTCTAACCTGTTGCCTAG [GAGCCCACTAG_LTGcore_GG_RTGcore_CT] (site GAGCCCACTAG) (LTG core: GG, RTG core: CT) | 0.181 |
| GCGCGACGATGGGTTCTAACCTGTTGCTTTC [GCGCGACCTAA_LTGcore_GA_RTGcore_GA] (site GCGCGACCTAA) (LTG core: GA, RTG core: GA) | 0.0229 |
| GAGTCCACTTGGGTTCTAACCTGTTGCGTTG [GAGTCCACTAC_LTGcore_CT_RTGcore_CA] (site GAGTCCACTAC) (LTG core: CT, RTG core: CA) | 0 |
